pIC50: −log10 of the molar value. Several values for one entry are separate records, joined by “and”; a condition that tells them apart may be missing. Identical values can stand only once. Like-named read-outs stand apart in the source and are kept apart here. Bounds are passed on as bounds.

The target of one data set is T1, HCMV polymerase (Human cytomegalovirus, UniProt P08546).
T1 construct: made in house; host or cells: recombinant baculovirus-infected SF-9 cells
Nature of the data set: HCMV polymerase assay (scintillation proximity assay). The class given is biochemical. The note with it: pol type CMV. The method, boiled down:
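Baculovirus/SF-9-expressed purified enzyme in HEPES pH 7.5, KCl, 4.5 mM MgCl2, BSA, with 90 nM ³H-dTTP, ± 2 mM CHAPS; started with 6 nM biotinylated poly(dA)-oligo(dT), 30 min, stopped with EDTA. Incorporation read by streptavidin SPA beads; IC50 by linear regression.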

The target of another data set is T2, CMV polymerase (Human cytomegalovirus, UniProt P08546).
T2 construct: made in house; host or cells: recombinant baculovirus-infected SF-9 cells
Nature of the data set: modified version of the HCMV polymerase assay (100% DMSO dilution, DTT, different enzyme lot). The data set is classed as biochemical. The following applies: Polymerase CMV; Table 7; read-out: Antiviral Selective Polymerase IC50 Values - IC50. As to the method: The HCMV polymerase assay is performed using a scintillation proximity assay (SPA) as described in several references, such as N. D. Cook, et al., Pharmaceutical Manufacturing International, pages 49-53 (1992); K. Takeuchi, Laboratory Practice, September issue (1992); U.S. Pat. No. 4,568,649 (1986); which are incorporated by reference herein. Reactions are performed in 96-well plates. The assay is conducted in 100 μl volume with 5.4 mM HEPES (pH 7.5), 11.7 mM KCl, 4.5 mM MgCl2, 0.36 mg/ml BSA, and 90 nM ^3H-dTTP. Assays are run with and without CHAPS, (3-[(3-Cholamidopropyl)-dimethylammonio]-1-propane-sulfonate) at a final concentration of 2 mM. HCMV is diluted in enzyme dilution buffer containing 50% glycerol, 250 mM NaCl, 10 mM HEPES (pH 7.5), 100 pg/ml BSA, and 0.01% sodium azide. The HCMV polymerase, which is expressed in recombinant baculovirus-infected SF-9 cells and purified according to literature procedures, is added at 10% (or 10 μl) of the final reaction volume, i.e., 100 μl. Compounds are diluted in 50% DMSO and 10 μl are added to each well. Control wells contain an equivalent concentration of DMSO. Unless noted otherwise, reactions are initiated via the addition of 6 nM biotinylated poly(dA)-oligo(dT) template/primer to reaction mixtures containing the enzyme, substrate, and compounds of interest. Plates are incubated in a 25° C. of 37° C. H2O bath and terminated via the addition of 40 μl/reaction of 0.5 M EDTA (pH 8) per well. Reactions are terminated within the time-frame during which substrate incorporation is linear and varied depending upon the enzyme and conditions used, i.e., 30 min. for HCMV polymerase. Ten μl of streptavidin-SPA beads (20 mg/ml in PBS/10% glycerol) are added following termination of the reaction. Plates are incubated 10 min. at 37° C., then equilibrated to room temperature, and counted on a Packard Topcount. Linear regressions are performed and IC50's are calculated using computer software. Results of the testing of compounds of the present invention in this assay are shown in Tables 1, 2, 5, 9, 10, 11, 13 (except for the last compound which was tested under modified conditions) and 14 below.
A modified version of the above HCMV polymerase assay is performed as described above, but with the following changes: Compounds are diluted in 100% DMSO until final dilution into assay buffer. In the previous assay, compounds are diluted in 50% DMSO. 4.5 mM dithiotherotol (DTT) is added to the polymerase buffer.

Setting [1] is: Table 1, read-out: CMV pol Assay IC50.

T1 sequence (P08546 whole entry): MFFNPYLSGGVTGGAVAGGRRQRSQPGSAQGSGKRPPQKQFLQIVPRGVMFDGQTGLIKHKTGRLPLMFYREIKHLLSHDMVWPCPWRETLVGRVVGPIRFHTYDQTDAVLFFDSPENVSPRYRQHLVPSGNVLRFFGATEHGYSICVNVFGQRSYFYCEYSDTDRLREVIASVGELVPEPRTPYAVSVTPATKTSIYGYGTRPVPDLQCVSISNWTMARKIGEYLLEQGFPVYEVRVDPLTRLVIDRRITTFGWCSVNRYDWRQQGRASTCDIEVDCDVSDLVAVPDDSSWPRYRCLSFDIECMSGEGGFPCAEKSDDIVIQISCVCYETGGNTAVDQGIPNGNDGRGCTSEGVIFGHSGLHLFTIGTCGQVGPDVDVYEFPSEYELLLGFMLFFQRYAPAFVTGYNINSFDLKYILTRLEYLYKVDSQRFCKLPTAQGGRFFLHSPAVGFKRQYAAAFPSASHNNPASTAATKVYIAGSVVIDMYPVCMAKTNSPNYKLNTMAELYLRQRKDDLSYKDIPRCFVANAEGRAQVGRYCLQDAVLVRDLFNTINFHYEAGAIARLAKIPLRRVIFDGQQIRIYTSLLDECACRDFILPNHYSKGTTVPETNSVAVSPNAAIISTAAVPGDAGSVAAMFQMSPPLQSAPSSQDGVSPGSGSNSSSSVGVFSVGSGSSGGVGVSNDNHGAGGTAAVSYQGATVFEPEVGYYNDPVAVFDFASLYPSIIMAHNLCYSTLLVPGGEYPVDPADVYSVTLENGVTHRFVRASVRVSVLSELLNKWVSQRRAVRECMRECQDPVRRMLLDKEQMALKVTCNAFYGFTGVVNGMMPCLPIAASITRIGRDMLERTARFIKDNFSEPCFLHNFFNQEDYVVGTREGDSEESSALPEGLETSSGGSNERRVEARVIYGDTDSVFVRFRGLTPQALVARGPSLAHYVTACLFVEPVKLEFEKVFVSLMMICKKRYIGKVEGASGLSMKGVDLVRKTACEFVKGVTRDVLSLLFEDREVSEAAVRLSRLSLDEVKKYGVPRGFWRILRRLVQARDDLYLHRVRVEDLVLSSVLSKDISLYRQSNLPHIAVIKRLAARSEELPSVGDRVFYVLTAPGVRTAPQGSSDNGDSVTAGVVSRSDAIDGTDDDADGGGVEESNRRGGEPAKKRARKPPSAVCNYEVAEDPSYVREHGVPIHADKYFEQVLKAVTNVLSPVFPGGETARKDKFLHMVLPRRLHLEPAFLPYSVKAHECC
T2 sequence (P08546 whole entry): as above

Molecule `COc1ccc(/C=C/c2ccc3ccc(C(=O)NCc4ccc(Cl)cc4)c(O)c3n2)cc1` [Example 47, N-[(4-Chlorophenyl)methyl]-8-hydroxy-2-[2-(4-methoxyphenyl)ethenyl]-7-quinolinecarboxamide] yielded a melting point of 200 to 201 °C. Further, the pIC50 on HCMV polymerase (Table 5, read-out: IC50) is 6.46 and > 6.52.
Molecule `Cc1ccc2ccc(C(=O)NCc3ccc(Cl)cc3)c(O)c2n1` [Example 10, N-[(4-Chlorophenyl)methyl]-8-hydroxy-2-methyl-7-quinolinecarboxamide] showed a melting point of 95 to 98 °C. Besides, at HCMV polymerase (setting [1]), the pIC50 is 4.72.
Regarding `Cc1ccc2c(Cl)cc(S(=O)(=O)NCCc3ccc(Cl)cc3Cl)c(O)c2n1` [Example 25, 5-Chloro-N-[2-(2,4-dichlorophenyl)ethyl]-8-hydroxy-2-methyl-7-quinolinesulfonamide], the melting point was 132 to 135 °C. For the same molecule, the pIC50 on HCMV polymerase (Table 2, read-out: IC50) is 5.44.
For the molecule `Br.O=S(=O)(NCCCc1ccccc1)c1cc(Cl)c2cccnc2c1O` [Example 21, 5-Chloro-8-hydroxy-N-(3-phenylpropyl)-7-quinolinesulfonamide monohydrobromide], the melting point is 210 to 212 °C (dec.). Also, the pIC50 at HCMV polymerase (Table 2, read-out: IC50) was 5.12 and 4.90.
`COc1ccc(CCc2ccc3ccc(C(=O)NCC(O)c4ccccc4)c(O)c3n2)cc1` (stereo not drawn) [Example 73, 8-hydroxy-N-(2-hydroxy-2-phenylethyl)-2-[2-(4-methoxyphenyl)ethyl]-7-quinolinecarboxamide] returned a melting point of 69 to 72 °C.
The molecule `Cc1ccc2c(Cl)cc(S(=O)(=O)NCC3CCCCC3)c(O)c2n1` [Example 32, 5-Chloro-N-(cyclohexylmethyl)-8-hydroxy-2-methyl-7-quinolinesulfonamide] had a melting point of 113 to 115 °C.
`O=C(Nc1ccc(Cl)cc1)c1ccc2cccnc2c1O` [Example 3, N-(4-Chlorophenyl)-8-hydroxy-7-quinolinecarboxamide] registered a melting point of 207 to 209 °C. The pIC50 at HCMV polymerase (setting [1]) is 5.15.
For `Cc1ccc2c(Cl)cc(C(=O)NCCCc3ccccc3)c(O)c2n1` [Example 69, 5-chloro-8-hydroxy-2-methyl-N-(3-phenylpropyl)-7-quinolinecarboxamide], the melting point fell in the range of 109 to 111 °C.
Take `O=C(NCc1ccc(Cl)cc1)c1ccc2c(O)cc(C(F)(F)F)nc2c1O` [Example 46, N-[(4-Chlorophenyl)methyl]-4,8-dihydroxy-2-trifluoromethyl-7-quinolinecarboxamide]: the melting point is 135 to 140 °C (dec.). Further, at HCMV polymerase (Table 5, read-out: IC50), the pIC50 is 4.63.
In turn, `O=S(=O)(NCc1ccccc1)c1cc(Br)c2cccnc2c1O` [Example 24, 5-Bromo-8-hydroxy-N-(phenylmethyl)-7-quinolinesulfonamide] yielded a melting point of 191 to 192 °C.
For the molecule `O=C(NCc1ccc(Cl)cc1)c1ccc2ccc[n+]([O-])c2c1O` [Example 58, N-[(4-Chlorophenyl)methyl]-8-hydroxy-7-quinoline-N-oxide carboxamide], the melting point was in the range of 178 to 183 °C. Further, the “% Inhib” value at HCMV polymerase (Table 5, Conc 1.00e-004 M) was 65%. Besides, the “% Inhib” value on HCMV polymerase (Table 5, Conc 1.30e-005 M) stood at 27.9%. At HCMV polymerase (Table 5, Conc 2.50e-005 M), the “% Inhib” value was determined as 40.2%. In addition, the “% Inhib” value on HCMV polymerase (Table 5, Conc 3.13e-006 M) is on record as −2.9%. The “% Inhib” value on HCMV polymerase (Table 5, Conc 5.00e-005 M) is on record as 46.2%. Further, the “% Inhib” value at HCMV polymerase (Table 5, Conc 6.25e-006 M) was 2.4%. Further, the pIC50 at HCMV polymerase (Table 5, read-out: IC50) was 4.30.
`Cc1ccc2c(Cl)cc(S(=O)(=O)NCc3ccccc3)c(O)c2n1` [Example 27, 5-Chloro-8-hydroxy-2-methyl-N-(phenylmethyl)-7-quinoline-sulfonamide] returned a melting point of 113 to 114 °C. Besides, at HCMV polymerase (Table 2, read-out: IC50), the pIC50 is 4.83.
In the case of `Cc1ccc2c(Cl)cc(S(=O)(=O)NCc3cccc(Cl)c3)c(O)c2n1` [Example 33, 5-Chloro-N-[(3-chlorophenyl)methyl]-8-hydroxy-2-methyl-7-quinolinesulfonamide], the melting point was in the range of 52 to 54 °C. Also, the pIC50 on HCMV polymerase (Table 2, read-out: IC50) is 4.89.
As to `O=C(NC1=NC(=O)C(c2cccc(Cl)c2)S1)c1ccc2cccnc2c1O` (stereo not drawn) [Example 8, N-[5-(3-Chlorophenyl)-4,5-dihydro-4-oxo-2-thiazolyl]-8-hydroxy-7-quinolinecarboxamide], the melting point is 268 to 272 °C (dec.). In addition, the pIC50 at HCMV polymerase (setting [1]) is 4.70.
In turn, `COc1ccc(/C=C/c2ccc3ccc(C(=O)NCCSc4ccccc4)c(O)c3n2)cc1` [Example 54, 8-Hydroxy-2-[2-(4-methoxyphenyl)ethenyl]-N-[2-(phenylthio)-ethyl]-7-quinolinecarboxamide] gave a melting point of 163 to 165 °C. For the same molecule, the pIC50 at HCMV polymerase (Table 5, read-out: IC50) was > 5.51 and 6.52.
Consider `Cc1ccc2c(Cl)cc(S(=O)(=O)Nc3ccc(Cl)cc3)c(O)c2n1` [Example 28, 5-Chloro-N-(4-chlorophenyl)-8-hydroxy-2-methyl-7-quinoline-sulfonamide], for which the melting point was 284 to 287 °C (dec.). Besides, on HCMV polymerase (Table 2, read-out: IC50), the pIC50 was 5.26.
`CCCCCCCNC(=O)c1ccc2ccc(C(F)(F)F)nc2c1O` [Example 56, N-Heptyl-8-hydroxy-2-(trifluoromethyl)-7-quinolinecarboxamide]: the melting point was in the range of 97 to 99 °C.
The molecule `CC(C)c1ccc(S(=O)(=O)NCCCCCNC(=O)c2ccc3cccnc3c2O)cc1` [Example 71] registered a melting point of 106 to 108 °C.
The same measure, in the same setting: the result for `CSCC[C@H](Nc1nnc(NC(=O)c2ccc3cccnc3c2O)s1)C(=O)OC(C)(C)C.O` (hydrate or solvate) reads 204 to 205 °C.
As for `O=C(Nc1nnc(Br)s1)c1ccc2cccnc2c1O` [Example 244, N-(5-Bromo-1,3,4-thiadiazol-2-yl)-8-hydroxy-7-quinolinecarboxamide], the melting point was 250 °C (dec.).
As for `O=C(Nc1cc(C(F)(F)F)ccc1Cl)c1ccc2cccnc2c1O` [Example 164, N-[2-Chloro-5-(trifluoromethyl)phenyl]-8-hydroxy-7-quinolinecarboxamide], the melting point lay within 210 to 211 °C.
On the same count and under the same terms, the result for `O=C(Nc1nnc(C(F)(F)F)s1)c1ccc2cccnc2c1O` [Example 243, 8-Hydroxy-N-[5-(trifluoromethyl)-1,3,4-thiadiazol-2-yl]-7-quinolinecarboxamide] reads 300 to 302 °C (dec.); that for `N#CCNC(=O)c1ccc2cccnc2c1O` [Example 72, N-(cyanomethyl)-8-hydroxy-7-quinolinecarboxamide], 206 to 208 °C (dec.).
Take `Cc1ccc2c(Cl)cc(C(=O)NCCSc3ccccc3)c(O)c2n1` [Example 70, 5-chloro-8-hydroxy-2-methyl-N-[(2-phenylthio)ethyl]-7-quinolinecarboxamide]: the melting point lay within 131 to 134 °C.
Still for that read-out and setting: the result for `Cc1ccc(NC(=O)c2ccc3cccnc3c2O)c(C)c1` [Example 166, N-(2,4-Dimethylphenyl)-8-hydroxy-7-quinolinecarboxamide] reads 164 to 167 °C.
`Cc1ccc2c(Cl)cc(C(=O)NCc3ccc(Cl)cc3)c(O)c2n1` [Example 68, 5-Chloro-N-[(4-chlorophenyl)methyl]-8-hydroxy-2-methyl-7-quinolinecarboxamide] returned a melting point of 128 to 130 °C.
On to `COc1ccc(CCc2ccc3ccc(C(=O)NCC(O)c4ccccc4)c(O)c3n2)cc1` (stereo not drawn) [drawing 129], for which the pIC50 at CMV polymerase was 4.88.
The molecule `Cc1ccc(F)cc1NC(=O)c1ccc2cccnc2c1O` [Example 165, N-(5-Fluoro-2-methylphenyl)-8-hydroxy-7-quinolinecarboxamide] registered a melting point of 209 to 210 °C.
In the case of `CC(C)C[C@H](Nc1nnc(NC(=O)c2ccc3cccnc3c2O)s1)C(=O)OC(C)(C)C.O` (hydrate or solvate), the melting point was 214 to 215 °C.
On to `Cc1ccc2c(Cl)cc(C(=O)NCCCc3ccccc3)c(O)c2n1` [drawing 126], for which the pIC50 at CMV polymerase was 5.01 and 5.03.
